Entries after “also recorded” stand apart in the source; their conditions may differ.
What was measured:
[1] = cited from earlier work
[2] = test system: neutrophil recruitment; settings: cited from earlier work
[3] = in vivo; cited from earlier work
[4] = target: T1, CXCR2 (Homo sapiens, UniProt P25025); settings: relative to SB225002; cited from earlier work
T1 sequence (P25025 1-360): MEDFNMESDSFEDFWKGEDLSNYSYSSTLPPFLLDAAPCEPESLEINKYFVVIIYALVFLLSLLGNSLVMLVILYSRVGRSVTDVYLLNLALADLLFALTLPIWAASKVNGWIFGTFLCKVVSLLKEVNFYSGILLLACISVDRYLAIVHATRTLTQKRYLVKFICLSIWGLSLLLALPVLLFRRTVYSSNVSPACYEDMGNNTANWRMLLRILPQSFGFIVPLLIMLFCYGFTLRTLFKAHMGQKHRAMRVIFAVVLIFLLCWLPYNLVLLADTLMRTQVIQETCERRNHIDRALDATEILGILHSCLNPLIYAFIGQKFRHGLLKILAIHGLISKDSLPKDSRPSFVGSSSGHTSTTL

[5] = test system: mice; assay: Mechanical hypersensitivity: von Frey filaments, 50% withdrawal threshold of hind paws; assay type: in vivo
[6] = test system: mice; assay: Heat sensitivity, modified Hargreaves box; assay type: in vivo; settings: mice i.v. monoclonal ACPA D10 and B2; reparixin 30 mg/kg/day s.c. six days; tested day 26
Source text: Heat sensitivity was examined using a modified Hargreaves box ([…]. et al., 1997). Mice were placed individually in Plexiglas cubicles on the glass surface and allowed to habituate. A radiant heat stimulus was then applied from below to a hind paw until a motion sensor detects a brisk withdrawal and stops the stimulus. Elapsed time is automatically recorded with a cutoff at 20 seconds. Three measurements from each paw were averaged and presented as latency (in seconds) for the withdrawal.

[7] = test system: mice; assay: Cold sensitivity, acetone drop on hind paw; assay type: in vivo; settings: mice i.v. monoclonal ACPA D10 and B2; reparixin 30 mg/kg/day s.c. six days; day 19
Experimental: To assess sensitivity to cold, the mice were placed in the same testing device as used for detection of mechanical hypersensitivity. After habituation, a 1 ml syringe was used to gently apply a drop of acetone to the plantar surface of the hind paw and the duration of the nocifensive behavior (lifting, shaking, biting, and licking the paw) was recorded. The test was repeated three times on each paw and the average was calculated.

[8] = test system: ankle joints and tibia; assay: Joint histology and micro-CT (synovitis, bone erosion, cartilage); assay type: in vivo; settings: mice
[9] = test system: osteoclasts; assay: Osteoclast activation under IL-8 receptor blockade; settings: blockade of IL-8 receptors
[10] = test system: Cxcl1, Cxcl2 and other inflammatory factor mRNA; assay: Quantitative real-time PCR of ankle joint and plantar paw skin mRNA; assay type: in vivo, mice; settings: hD10/B02 mAb 1 mg each; zoledronate 100 ug/kg
Experimental: Ankle joints and plantar paw skin of the hind legs were processed for gene expression analysis. Muscle and tendons were removed from ankle joints, which were then snap frozen and pulverized. Tissues were sonicated in TRIzol (Invitrogen) and RNA was extracted according to manufacturer's protocol. After complementary DNA (cDNA) synthesis, quantitative real-time PCR (Applied Biosystems) was performed using hydrolysis probes to determine the relative messenger RNA (mRNA) levels. Primers for chemokines Ccl2 (MCP1, Mm00441242_m1), Cxcl1 (Mm04207460_m1), Cxcl2 (Mm00436450_m1), Cxcl5 (Mm00436451_g1), inflammatory cytokines Tnf (Mm00443258_m1), Il1b (Mm00434228_m1), Il6 (Mm00446190_m1), mast cell proteases Mcpt4 (Mcp4, Mm00487636-g1), Tpsb2 (Mcp6, Mm01301240-g1), pro-inflammatory enzyme Cox2 (Mm00478374_m1), matrix metallo proteases Mmp2 (Mm00439498_m1), Mmp9 (Mm00442991_m1), Mmp13 (Mm00439491-m1), and reference gene Hprt1 (Mm01545399_m1) (all from Applied Biosystems) were used to determine threshold cycle values to calculate the number of cell equivalents in each sample with the standard curve method. Data was normalized to Hprt1 values and expressed as relative expression units (REU).

[11] = test system: RA synovial fibroblasts; settings: cited from earlier work
[12] = mice injected with hG09 or hC03, thresholds at baseline, 1.5, 3 and 6 hours

Compound: C[C@H](CO)Nc1nc(SCc2cccc(F)c2F)nc2[nH]c(=O)sc12 [AZD-8309, 5-[[(2,3-Difluorophenyl)methyl]thio]-7-[[(1R)-2-hydroxy-1-methylethyl]amino]-thiazolo[4,5-d]pyrimidin-2(3H)-one]
- Tolerability in clinical trials ([1]; human, in vivo): well tolerated

Compound: C[C@@H](C(N)=O)c1ccc(OS(=O)(=O)C(F)(F)F)cc1 [DF2162, 4-[(1R)-2-amino-1-methyl-2-oxoethyl]phenyl trifluoromethane sulfonate]
- CXCL1 and carrageenan-induced pain-like behavior ([2]; mice): blocked
- Neutrophil recruitment induced by injection of CXCL1 or carrageenan to the paw ([2]; mice): inhibits neutrophil recruitment
- Nociceptor sensitization ([2]; mouse, in vivo): does not directly affect nociceptor sensitization
- Results in pre-clinical studies of adjuvant-induced polyarthritis and bleomycin-induced pulmonary inflammation and fibrosis [3]: promising results

Compound: O=C(Nc1ccc(Cl)c(S(=O)(=O)N2CCNCC2)c1O)Nc1cccc(F)c1Cl [SB656933, 1-(2-chloro-3-fluorophenyl)-3-(4-chloro-2-hydroxy-3-piperazin-1-ylsulfonylphenyl)urea]
- Potency as CXCR2 antagonist [4]: same potency as SB225002
- Tolerability in clinical trials ([1]; human, in vivo): well tolerated at all doses

Compound: CC[C@@H](Nc1c(Nc2cccc(C(=O)N(C)C)c2O)c(=O)c1=O)c1ccc(C)o1 [SCH527123, 2-hydroxy-N,N-dimethyl-3-[[2-[[1(R)-(5-methyl-2-furanyl)propyl]amino]-3,4-dioxo-1-cyclobuten-1-yl]amino]benzamide]
- Adverse events in clinical trials ([1]; human, in vivo): no treatment-induced adverse events were observed
- Severe asthma ([1]; oral, clinical trials): modest improvement
- Sputum neutrophils ([1]; oral, clinical trials): reduction in sputum neutrophils

Compound: O=C(O)Cc1ccccc1Nc1c(Cl)cccc1Cl [diclofenac]
- Pain measured as withdrawal threshold, effect of painkiller ([5]; mice injected with hC03 and hB09G09, diclofenac 30 mg/kg, observed during 6 hours): apparent lack of effect

Compound: NCC1(CC(=O)O)CCCCC1 [gabapentin]
- Pain measured as withdrawal threshold, effect of painkiller [5, 12]: apparent lack of effect; also recorded: no detectable effect on pain

Compound: COc1ccc2cc([C@H](C)C(=O)O)ccc2c1 [naproxen]
- Pain measured as withdrawal threshold, effect of painkiller [5, 12]: apparent lack of effect; also recorded: no detectable effect on pain

Compound: CC(C)Cc1ccc([C@@H](C)C(=O)NS(C)(=O)=O)cc1 [reparixin, (2R)-2-[4-(2-methylpropyl)phenyl]-N-methylsulfonylpropanamide]
- ACPA-induced mechanical hypersensitivity, effect of treatment ([5]; mice i.v. monoclonal ACPA D10 and B2 (1 mg each), reparixin 30 mg/kg/day s.c. six consecutive days starting day 6, vs saline controls): partially reversed
- Tactile thresholds in naive mice ([5]; naive mice not injected with ACPAs, treatment for six days): did not affect tactile thresholds
- Pain measured as withdrawal threshold, effect of treatment ([5]; pain induced by human monoclonal ACPA hC03 (hG09 control), reparixin 30 mg/kg once a day starting day 1): attenuating effects
- ACPA-induced heat hypersensitivity, effect of treatment [6]: partially reversed
- ACPA-induced sensitivity to cold, effect of treatment [7]: attenuated sensitivity to cold
- Bone destruction induced by injected ACPA [8]: completely reversed
- Activation of osteoclasts [9]: blocks the activation of osteoclasts

Compound: O=P(O)(O)C(O)(Cn1ccnc1)P(=O)(O)O [zoledronate]
- ACPA induced pain measured as withdrawal threshold, effect of osteoclast inhibitor ([5]; hD10/hB02 mAb 1 mg each, zoledronate for 10 days): dose-dependent effect; also recorded: dose dependent effect
- ACPA-induced increase of CXCL1 mRNA in the ankle joint [10]: efficiently prevented

Compound: epigallocatechin-3-gallate [EGCG]
- Induction of IL-8 production [11]: inhibited the induction of IL-8 production

From patent US10940126B2, “Inhibition of IL-8 in the treatment of pain and/or bone loss” (priority 2015, dated 2021)
